Tests used:
[1] = molecular target: T1, EGFR L858R T790M in NCI-H1975 cell line (Homo sapiens, UniProt P00533, L858R/T790M); assay: NCI-H1975 pEGFR AlphaLISA assay; format: cell-based; details: NCI-H1975 cells (EGFR L858R T790M), p-EGFR (Tyr1068), 4-5 hours incubation; read-out: Ext pEGFR H1975 GMean IC50 (nM) Protocol: @Pharmaron AlphaLISA (Num)
T1 construct: host or cells: NCI-H1975
Procedure: The NCI-H1975 cells were seeded at 12.5K/well in 22 μL into 384 well opti plate (PerkinElmer, 6007299) and adhering overnight at 37C/5% CO2. On the next day, the test compounds and DMSO control were added into H1975 cell plate followed by incubation at 37C/5% CO2 for 4-5 hours. […] Then 5 μL of a donor bead mix was added to each well followed by overnight incubation at room temperature in dark. On the next day, the plate was read at a compatible plate reader to obtain pEGFR signal. Percent of pEGFR inhibition was plotted against log concentration of compounds to generate IC50 values.

EGFR (L858R T790M C797S) = molecular target: T2, EGFR (L858R T790M C797S) (Homo sapiens, UniProt P00533, C797S/L858R/T790M); assay: Biochemical EGFR inhibition assay (Caliper mobility shift), EGFR LRTMCS mutant; details: LRTMCS (PH) IC50 (nM) @ 1 mM ATP (Num)
T2 construct: purchased SignalChem E10-122VG
T2 sequence (P00533 25-1210 T790M/C797S/L858R): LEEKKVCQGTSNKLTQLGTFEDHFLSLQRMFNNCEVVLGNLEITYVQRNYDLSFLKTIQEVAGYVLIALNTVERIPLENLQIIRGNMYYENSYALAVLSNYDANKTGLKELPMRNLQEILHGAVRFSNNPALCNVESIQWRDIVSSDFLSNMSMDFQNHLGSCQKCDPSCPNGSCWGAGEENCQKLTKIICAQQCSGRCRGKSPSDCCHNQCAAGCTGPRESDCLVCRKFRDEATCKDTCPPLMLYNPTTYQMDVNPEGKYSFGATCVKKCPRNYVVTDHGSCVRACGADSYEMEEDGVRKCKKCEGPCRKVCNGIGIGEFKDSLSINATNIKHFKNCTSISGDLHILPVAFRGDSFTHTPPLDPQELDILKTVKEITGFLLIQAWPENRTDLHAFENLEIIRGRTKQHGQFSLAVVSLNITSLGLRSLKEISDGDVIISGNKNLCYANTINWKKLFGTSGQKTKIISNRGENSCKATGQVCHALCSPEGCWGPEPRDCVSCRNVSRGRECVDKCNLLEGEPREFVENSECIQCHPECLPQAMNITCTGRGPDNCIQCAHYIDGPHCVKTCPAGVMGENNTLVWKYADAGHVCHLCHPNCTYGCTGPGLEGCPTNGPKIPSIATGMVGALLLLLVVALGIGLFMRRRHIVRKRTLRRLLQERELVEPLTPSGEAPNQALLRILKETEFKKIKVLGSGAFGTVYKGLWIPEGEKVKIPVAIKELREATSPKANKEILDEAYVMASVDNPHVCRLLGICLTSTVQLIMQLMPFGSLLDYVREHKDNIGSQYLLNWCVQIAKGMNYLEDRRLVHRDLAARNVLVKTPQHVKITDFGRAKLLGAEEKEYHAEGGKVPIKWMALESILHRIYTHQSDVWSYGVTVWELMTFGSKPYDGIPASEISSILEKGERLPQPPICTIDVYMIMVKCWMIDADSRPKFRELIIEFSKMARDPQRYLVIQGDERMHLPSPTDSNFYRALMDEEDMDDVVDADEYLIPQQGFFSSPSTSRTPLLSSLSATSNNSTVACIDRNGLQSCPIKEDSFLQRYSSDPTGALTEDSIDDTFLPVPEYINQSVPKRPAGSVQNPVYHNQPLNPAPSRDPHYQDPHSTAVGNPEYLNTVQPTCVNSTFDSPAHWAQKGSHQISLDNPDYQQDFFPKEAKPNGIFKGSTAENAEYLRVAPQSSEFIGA
Procedure: Reactions proceeded until between 10% to 20% total peptides were phosphorylated at room temperature (25° C.) and were terminated with 35 mM 2,2′,2″,2′″-(ethane-1,2-diyldinitrilo)tetraacetic acid (EDTA). Product was detected using the Caliper mobility shift detection method where the phosphorylated peptide (product) and substrate were electrophoretically separated and measured. Percent activity was plotted against log concentration of compound and points to generate an apparent IC50.

T1 sequence (P00533 25-1210 T790M/L858R): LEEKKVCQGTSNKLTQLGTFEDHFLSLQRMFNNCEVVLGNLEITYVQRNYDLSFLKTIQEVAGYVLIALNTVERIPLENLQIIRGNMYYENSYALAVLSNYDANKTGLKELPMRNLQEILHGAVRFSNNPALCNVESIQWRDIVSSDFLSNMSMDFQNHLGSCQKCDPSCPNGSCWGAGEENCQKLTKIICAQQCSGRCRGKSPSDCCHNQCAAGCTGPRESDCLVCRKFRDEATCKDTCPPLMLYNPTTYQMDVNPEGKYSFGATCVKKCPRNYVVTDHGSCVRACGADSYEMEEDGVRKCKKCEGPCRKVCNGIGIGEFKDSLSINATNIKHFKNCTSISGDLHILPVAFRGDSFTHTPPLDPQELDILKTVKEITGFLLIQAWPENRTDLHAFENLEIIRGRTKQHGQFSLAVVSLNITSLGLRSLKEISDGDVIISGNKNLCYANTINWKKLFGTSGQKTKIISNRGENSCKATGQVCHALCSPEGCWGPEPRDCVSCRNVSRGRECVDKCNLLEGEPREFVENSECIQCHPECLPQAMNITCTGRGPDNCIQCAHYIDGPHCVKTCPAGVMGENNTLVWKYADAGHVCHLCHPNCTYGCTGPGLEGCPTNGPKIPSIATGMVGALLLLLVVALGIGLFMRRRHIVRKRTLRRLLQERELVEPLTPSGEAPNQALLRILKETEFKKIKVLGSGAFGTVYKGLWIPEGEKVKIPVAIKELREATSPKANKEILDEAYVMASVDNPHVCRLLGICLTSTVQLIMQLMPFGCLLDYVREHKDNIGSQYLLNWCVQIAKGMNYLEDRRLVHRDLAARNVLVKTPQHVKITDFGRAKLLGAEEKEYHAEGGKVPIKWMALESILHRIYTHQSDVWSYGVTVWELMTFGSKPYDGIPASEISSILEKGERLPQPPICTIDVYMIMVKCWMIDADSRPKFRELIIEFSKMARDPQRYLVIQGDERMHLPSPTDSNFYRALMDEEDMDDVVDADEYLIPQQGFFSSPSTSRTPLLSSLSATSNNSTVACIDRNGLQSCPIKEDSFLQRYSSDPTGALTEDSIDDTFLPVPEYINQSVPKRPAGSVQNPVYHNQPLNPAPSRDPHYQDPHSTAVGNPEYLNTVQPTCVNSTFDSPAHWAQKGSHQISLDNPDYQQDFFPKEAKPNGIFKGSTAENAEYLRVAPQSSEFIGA

IC50 [1] | IC50 (EGFR (L858R T790M C797S)) | SMILES
> 50 nM | 15 to 20 nM | CC(=O)N1CC(COc2ccc(C(C)C)c3cc(Nc4ccnc(N5CC[C@](C)(O)[C@H](F)C5)n4)ncc23)C1 [Example 26, 1-(3-(((3-((2-((3R,4S)-3-fluoro-4-hydroxy-4-methylpiperidin-1-yl)pyrimidin-4-yl)amino)-5-isopropylisoquinolin-8-yl)oxy)methyl)azetidin-1-yl)ethan-1-one]
> 50 nM | < 15 nM | CC(C)c1ccc(OCCn2cnnc2)c2cnc(Nc3ccnc(N4CC[C@](C)(O)[C@H](F)C4)n3)cc12 [Example 27, (3R,4S)-1-(4-((8-(2-(4H-1,2,4-triazol-4-yl)ethoxy)-5-isopropylisoquinolin-3-yl)amino)pyrimidin-2-yl)-3-fluoro-4-methylpiperidin-4-ol]
20 to 30 nM | < 15 nM | CC(C)c1ccc(OCCn2cnnc2)c2cnc(Nc3ccnc(N4CC[C@@](C)(O)[C@@H](F)C4)n3)cc12 [Example 28, (3S,4R)-1-(4-((8-(2-(4H-1,2,4-triazol-4-yl)ethoxy)-5-isopropylisoquinolin-3-yl)amino)pyrimidin-2-yl)-3-fluoro-4-methylpiperidin-4-ol]
20 to 30 nM | < 15 nM | CC(C)c1ccc(OCCn2ccnc2)c2cnc(Nc3ccnc(N4CC[C@](C)(O)[C@H](F)C4)n3)cc12 [Example 29, (3R,4S)-1-(4-((8-(2-(1H-imidazol-1-yl)ethoxy)-5-isopropylisoquinolin-3-yl)amino)pyrimidin-2-yl)-3-fluoro-4-methylpiperidin-4-ol]
> 50 nM | < 15 nM | Cc1nncn1CCOc1ccc(C(C)C)c2cc(Nc3ccnc(N4CC[C@](C)(O)[C@H](F)C4)n3)ncc12 [Example 30, (3R,4S)-3-fluoro-1-(4-((5-isopropyl-8-(2-(3-methyl-4H-1,2,4-triazol-4-yl)ethoxy)isoquinolin-3-yl)amino)pyrimidin-2-yl)-4-methylpiperidin-4-ol]
> 50 nM | < 15 nM | CC(C)c1ccc(OCCN2CCOCC2)c2cnc(Nc3ccnc(N4CC[C@](C)(O)[C@H](F)C4)n3)cc12 [Example 31, (3R,4S)-3-fluoro-1-(4-((5-isopropyl-8-(2-morpholinoethoxy)isoquinolin-3-yl)amino)pyrimidin-2-yl)-4-methylpiperidin-4-ol]
> 50 nM | < 15 nM | CC(C)c1ccc(OCCn2ccnn2)c2cnc(Nc3ccnc(N4CC[C@](C)(O)[C@H](F)C4)n3)cc12 [Example 32, (3R,4S)-1-(4-((8-(2-(1H-1,2,3-triazol-1-yl)ethoxy)-5-isopropylisoquinolin-3-yl)amino)pyrimidin-2-yl)-3-fluoro-4-methylpiperidin-4-ol]
30 to 50 nM | 15 to 20 nM | CC(C)c1ccc(OC[C@@H]2CCC(=O)N2C)c2cnc(Nc3ccnc(N4CC[C@](C)(O)[C@H](F)C4)n3)cc12 [Example 33, (S)-5-(((3-((2-((3R,4S)-3-fluoro-4-hydroxy-4-methylpiperidin-1-yl)pyrimidin-4-yl)amino)-5-isopropylisoquinolin-8-yl)oxy)methyl)-1-methylpyrrolidin-2-one]
> 50 nM | 15 to 20 nM | CC(C)c1ccc(OCCc2ccnn2C)c2cnc(Nc3ccnc(N4CC[C@](C)(O)[C@H](F)C4)n3)cc12 [Example 34, (3R,4S)-3-fluoro-1-(4-((5-isopropyl-8-(2-(1-methyl-1H-pyrazol-5-yl)ethoxy)isoquinolin-3-yl)amino)pyrimidin-2-yl)-4-methylpiperidin-4-ol]
30 to 50 nM | 15 to 20 nM | CC(C)c1ccc(OCCc2cnnn2C)c2cnc(Nc3ccnc(N4CC[C@](C)(O)[C@H](F)C4)n3)cc12 [Example 35, (3R,4S)-3-fluoro-1-(4-((5-isopropyl-8-(2-(1-methyl-1H-1,2,3-triazol-5-yl)ethoxy)isoquinolin-3-yl)amino)pyrimidin-2-yl)-4-methylpiperidin-4-ol]
> 50 nM | 15 to 20 nM | CC(C)c1ccc(OC[C@H](C)n2cnnc2)c2cnc(Nc3ccnc(N4CC[C@](C)(O)[C@H](F)C4)n3)cc12 [Example 36, (3R,4S)-1-(4-((8-((S)-2-(4H-1,2,4-triazol-4-yl)propoxy)-5-isopropylisoquinolin-3-yl)amino)pyrimidin-2-yl)-3-fluoro-4-methylpiperidin-4-ol]
30 to 50 nM | 15 to 20 nM | CC(C)c1ccc(OC[C@@H](C)n2cnnc2)c2cnc(Nc3ccnc(N4CC[C@](C)(O)[C@H](F)C4)n3)cc12 [Example 37, (3R,4S)-1-(4-((8-((R)-2-(4H-1,2,4-triazol-4-yl)propoxy)-5-isopropylisoquinolin-3-yl)amino)pyrimidin-2-yl)-3-fluoro-4-methylpiperidin-4-ol]
> 50 nM | 15 to 20 nM | CC(C)c1ccc(OCCc2cncn2C)c2cnc(Nc3ccnc(N4CC[C@](C)(O)[C@H](F)C4)n3)cc12 [Example 38, (3R,4S)-3-fluoro-1-(4-((5-isopropyl-8-(2-(1-methyl-1H-imidazol-5-yl)ethoxy)isoquinolin-3-yl)amino)pyrimidin-2-yl)-4-methylpiperidin-4-ol]
> 50 nM | 15 to 20 nM | CC(C)c1ccc(OCCn2cncn2)c2cnc(Nc3ccnc(N4CC[C@](C)(O)[C@H](F)C4)n3)cc12 [Example 39, (3R,4S)-1-(4-((8-(2-(1H-1,2,4-triazol-1-yl)ethoxy)-5-isopropylisoquinolin-3-yl)amino)pyrimidin-2-yl)-3-fluoro-4-methylpiperidin-4-ol]
> 50 nM | < 15 nM | CO[C@@H]1CCN(c2nccc(Nc3cc4c(C(C)C)ccc(OCCn5cnnc5)c4cn3)n2)C[C@@H]1F [Example 40, 8-(2-(4H-1,2,4-triazol-4-yl)ethoxy)-N-(2-((3S,4R)-3-fluoro-4-methoxypiperidin-1-yl)pyrimidin-4-yl)-5-isopropylisoquinolin-3-amine]
20 to 30 nM | < 15 nM | CO[C@H]1CCN(c2nccc(Nc3cc4c(C(C)C)ccc(OCCn5cnnc5)c4cn3)n2)C[C@H]1F [Example 41, 8-(2-(4H-1,2,4-triazol-4-yl)ethoxy)-N-(2-((3R,4S)-3-fluoro-4-methoxypiperidin-1-yl)pyrimidin-4-yl)-5-isopropylisoquinolin-3-amine]
> 50 nM | 15 to 20 nM | Cc1noc(C)c1CCOc1ccc(C(C)C)c2cc(Nc3ccnc(N4CC[C@@H](OCCO)[C@@H](F)C4)n3)ncc12 [Example 43, 2-(((3S,4R)-1-(4-((8-(2-(3,5-dimethylisoxazol-4-yl)ethoxy)-5-isopropylisoquinolin-3-yl)amino)pyrimidin-2-yl)-3-fluoropiperidin-4-yl)oxy)ethan-1-ol]
> 50 nM | 15 to 20 nM | [2H]C([2H])([2H])O[C@H]1CCN(c2nccc(Nc3cc4c(C(C)C)ccc(OCCn5cnnc5)c4cn3)n2)C[C@H]1F [Example 44, 8-(2-(4H-1,2,4-triazol-4-yl)ethoxy)-N-(2-((3R,4S)-3-fluoro-4-(methoxy-d3)piperidin-1-yl)pyrimidin-4-yl)-5-isopropylisoquinolin-3-amine]
> 50 nM | 15 to 20 nM | [2H]C([2H])([2H])O[C@@H]1CCN(c2nccc(Nc3cc4c(C(C)C)ccc(OCCn5cnnc5)c4cn3)n2)C[C@@H]1F [Example 45, 8-(2-(4H-1,2,4-triazol-4-yl)ethoxy)-N-(2-((3S,4R)-3-fluoro-4-(methoxy-d3)piperidin-1-yl)pyrimidin-4-yl)-5-isopropylisoquinolin-3-amine]
> 50 nM | 15 to 20 nM | [2H]C([2H])([2H])O[C@H]1CCN(c2nccc(Nc3cc4c(C(C)C)ccc(OC[C@H]5CCC(=O)N5C)c4cn3)n2)C[C@H]1F [Example 46, (R)-5-(((3-((2-((3R,4S)-3-fluoro-4-(methoxy-d3)piperidin-1-yl)pyrimidin-4-yl)amino)-5-isopropylisoquinolin-8-yl)oxy)methyl)-1-methylpyrrolidin-2-one]
> 50 nM | 15 to 20 nM | [2H]C([2H])([2H])O[C@@H]1CCN(c2nccc(Nc3cc4c(C(C)C)ccc(OC[C@H]5CCC(=O)N5C)c4cn3)n2)C[C@@H]1F [Example 47, (R)-5-(((3-((2-((3S,4R)-3-fluoro-4-(methoxy-d3)piperidin-1-yl)pyrimidin-4-yl)amino)-5-isopropylisoquinolin-8-yl)oxy)methyl)-1-methylpyrrolidin-2-one]
> 50 nM | 15 to 20 nM | [2H]C([2H])([2H])O[C@H]1CCN(c2nccc(Nc3cc4c(C(C)C)ccc(OCCn5ccnc5)c4cn3)n2)C[C@H]1F [Example 48, 8-(2-(1H-imidazol-1-yl)ethoxy)-N-(2-((3R,4S)-3-fluoro-4-(methoxy-d3)piperidin-1-yl)pyrimidin-4-yl)-5-isopropylisoquinolin-3-amine]
> 50 nM | 15 to 20 nM | [2H]C([2H])([2H])O[C@@H]1CCN(c2nccc(Nc3cc4c(C(C)C)ccc(OCCn5ccnc5)c4cn3)n2)C[C@@H]1F [Example 49, 8-(2-(1H-imidazol-1-yl)ethoxy)-N-(2-((3S,4R)-3-fluoro-4-(methoxy-d3)piperidin-1-yl)pyrimidin-4-yl)-5-isopropylisoquinolin-3-amine]

From patent US20240299387A1, “HETEROCYCLIC EGFR INHIBITORS FOR USE IN THE TREATMENT OF CANCER” (Blueprint Medicines Corporation, priority 2021, published 2024)
